Data published in ChEMBL document CHEMBL3217508, “Synthesis and antifungal activity of the novel triazole compounds” (2013).
≈ marks a conversion by molar mass, not a printed value.

Key:
Assay type in all cases: functional
Aspergillus fumigatus = assay: Antifungal activity against Aspergillus fumigatus assessed as growth inhibition by microbroth dilution method
Candida parapsilosis = assay: Antifungal activity against Candida parapsilosis assessed as growth inhibition by microbroth dilution method; settings: Lodderomyces parapsilosis
Candida tropicalis = assay: Antifungal activity against Candida tropicalis assessed as growth inhibition by microbroth dilution method
Trichophyton rubrum [1] = assay: Antifungal activity against Trichophyton rubrum assessed as growth inhibition by microbroth dilution method
Cryptococcus neoformans = assay: Antifungal activity against Cryptococcus neoformans assessed as growth inhibition after 72 hrs by microbroth dilution method
Kluyveromyces marxianus [2] = assay: Antifungal activity against Candida kefyr assessed as growth inhibition by microbroth dilution method
Candida albicans [3] = assay: Antifungal activity against Candida albicans Y0109 assessed as growth inhibition after 24 hrs by microbroth dilution method; settings: Y0109, 24 h
Candida albicans [4] = assay: Antifungal activity against Candida albicans SC5314 assessed as growth inhibition after 24 hrs by microbroth dilution method; settings: SC5314, 24 h
Kluyveromyces marxianus [5] = assay: Ratio of fluconazole MIC80 to compound MIC80 against Candida kefyr
Candida albicans [6] = assay: Ratio of fluconazole MIC80 to compound MIC80 against Candida albicans SC5314
Trichophyton rubrum [7] = assay: Ratio of fluconazole MIC80 to compound MIC80 against Trichophyton rubrum

Row | SMILES | MIC80 (Aspergillus fumigatus) | MIC80 (Candida parapsilosis) | MIC80 (Candida tropicalis) | MIC80 (Trichophyton rubrum [1]) | MIC80 (Cryptococcus neoformans) | MIC80 (Kluyveromyces marxianus [2]) | MIC80 (Candida albicans [3]) | MIC80 (Candida albicans [4]) | Ratio (Kluyveromyces marxianus [5]) | Ratio (Candida albicans [6]) | Ratio (Trichophyton rubrum [7])
1 | CN(Cc1cn(Cc2ccccc2C#N)nn1)CC(O)(Cn1cncn1)c1ccc(F)cc1F (stereo not drawn) | > 64 µg/mL | 0.0625 µg/mL | 0.25 µg/mL | 1 µg/mL | 0.25 µg/mL (≈ 0.538 µM) | 0.25 µg/mL | < 0.125 µg/mL | 0.25 µg/mL (≈ 0.538 µM) |  |  | 
2 | CN(Cc1cn(Cc2ccccc2Br)nn1)CC(O)(Cn1cncn1)c1ccc(F)cc1F (stereo not drawn) | > 64 µg/mL | 0.25 µg/mL | 0.25 µg/mL | 0.25 µg/mL | 0.25 µg/mL (≈ 0.482 µM) | 0.0625 µg/mL | 0.25 µg/mL (≈ 0.482 µM) | 0.25 µg/mL (≈ 0.482 µM) |  |  | 
3 | CN(Cc1cn(Cc2cccc([N+](=O)[O-])c2)nn1)CC(O)(Cn1cncn1)c1ccc(F)cc1F (stereo not drawn) | > 64 µg/mL | 0.0625 µg/mL | 0.0625 µg/mL | 0.0625 µg/mL | 0.25 µg/mL (≈ 0.516 µM) | 0.0156 µg/mL | < 0.125 µg/mL | 0.0156 µg/mL (≈ 0.0322 µM) | 64 | 32 | 
4 | CN(Cc1cn(Cc2cccc(Br)c2)nn1)CC(O)(Cn1cncn1)c1ccc(F)cc1F (stereo not drawn) | > 64 µg/mL | 0.0625 µg/mL | 0.25 µg/mL | 1 µg/mL | 0.25 µg/mL (≈ 0.482 µM) | 0.25 µg/mL | < 0.125 µg/mL | 0.25 µg/mL (≈ 0.482 µM) |  |  | 
5 | CC(=O)N1CCN(c2ccc(OCC3COC(Cn4ccnc4)(c4ccc(Cl)cc4Cl)O3)cc2)CC1 (stereo not drawn) [KETOCONAZOLE] | 0.125 µg/mL | < 0.125 µg/mL | < 0.125 µg/mL | < 0.125 µg/mL | 0.5 µg/mL (≈ 0.941 µM) | 0.0625 µg/mL | < 0.125 µg/mL | < 0.125 µg/mL |  |  | 
6 | C[C@@H]1[C@H](O)[C@@H](C)/C=C/C=C/C=C/C=C/C=C/C=C/C=C/[C@H](O[C@@H]2O[C@H](C)[C@@H](O)[C@H](N)[C@@H]2O)C[C@@H]2O[C@](O)(C[C@@H](O)C[C@@H](O)[C@H](O)CC[C@@H](O)C[C@@H](O)CC(=O)O[C@H]1C)C[C@H](O)[C@H]2C(=O)O [AMPHOTERICIN B] | 32 µg/mL | 1 µg/mL | 0.25 µg/mL | 0.125 µg/mL | 4 µg/mL (≈ 4.33 µM) | 0.25 µg/mL | 4 µg/mL (≈ 4.33 µM) | 8 µg/mL (≈ 8.66 µM) |  |  | 
7 | CN(Cc1cn(Cc2ccccc2Cl)nn1)CC(O)(Cn1cncn1)c1ccc(F)cc1F (stereo not drawn) | > 64 µg/mL | 0.25 µg/mL | 1 µg/mL | 4 µg/mL | 0.25 µg/mL (≈ 0.528 µM) | 16 µg/mL | 0.25 µg/mL (≈ 0.528 µM) | 0.25 µg/mL (≈ 0.528 µM) |  |  | 
8 | CN(Cc1cn(Cc2ccc([N+](=O)[O-])cc2)nn1)CC(O)(Cn1cncn1)c1ccc(F)cc1F (stereo not drawn) | > 64 µg/mL | 0.25 µg/mL | 0.25 µg/mL | 1 µg/mL | 0.25 µg/mL (≈ 0.516 µM) | 0.25 µg/mL | 0.25 µg/mL (≈ 0.516 µM) | 0.25 µg/mL (≈ 0.516 µM) |  |  | 
9 | CCC(C)n1ncn(-c2ccc(N3CCN(c4ccc(OCC5COC(Cn6cncn6)(c6ccc(Cl)cc6Cl)O5)cc4)CC3)cc2)c1=O (stereo not drawn) [ITRACONAZOLE] | 2 µg/mL | 0.0625 µg/mL | < 0.0625 µg/mL | 0.0625 µg/mL | 0.125 µg/mL (≈ 0.177 µM) | 0.0625 µg/mL | 0.0625 µg/mL (≈ 0.0886 µM) | < 0.0625 µg/mL |  |  | 
10 | CN(C/C=C/C#CC(C)(C)C)Cc1cccc2ccccc12 [TERBINAFINE] | 0.25 µg/mL | < 0.125 µg/mL | < 0.125 µg/mL | < 0.125 µg/mL | 8 µg/mL (≈ 27.5 µM) | 0.0625 µg/mL | 2 µg/mL (≈ 6.86 µM) | 16 µg/mL (≈ 54.9 µM) |  |  | 
11 | Cc1ccc(Cn2cc(CN(C)CC(O)(Cn3cncn3)c3ccc(F)cc3F)nn2)cc1 (stereo not drawn) | > 64 µg/mL | 0.0625 µg/mL | 1 µg/mL | 1 µg/mL | 1 µg/mL (≈ 2.21 µM) | 0.25 µg/mL | < 0.125 µg/mL | 0.25 µg/mL (≈ 0.551 µM) |  |  | 
12 | CN(Cc1cn(Cc2ccc(Cl)cc2)nn1)CC(O)(Cn1cncn1)c1ccc(F)cc1F (stereo not drawn) | > 64 µg/mL | 0.25 µg/mL | 1 µg/mL | 4 µg/mL | 1 µg/mL (≈ 2.11 µM) | 0.25 µg/mL | < 0.125 µg/mL | 0.25 µg/mL (≈ 0.528 µM) |  |  | 
13 | CN(Cc1cn(Cc2ccc(C#N)cc2)nn1)CC(O)(Cn1cncn1)c1ccc(F)cc1F (stereo not drawn) | > 64 µg/mL | 0.0156 µg/mL | 0.0625 µg/mL | 0.0625 µg/mL | 0.25 µg/mL (≈ 0.538 µM) | 0.0625 µg/mL | < 0.0125 µg/mL | 0.0625 µg/mL (≈ 0.135 µM) | 16 | 8 | 32
14 | OC(Cn1cncn1)(Cn1cncn1)c1ccc(F)cc1F [FLUCONAZOLE] | > 64 µg/mL | < 0.125 µg/mL | < 0.125 µg/mL | 2 µg/mL | 8 µg/mL (≈ 26.1 µM) | 1 µg/mL | 0.5 µg/mL (≈ 1.63 µM) | 0.5 µg/mL (≈ 1.63 µM) |  |  | 
15 | CN(Cc1cn(Cc2cccc(F)c2)nn1)CC(O)(Cn1cncn1)c1ccc(F)cc1F (stereo not drawn) | > 64 µg/mL | 0.5 µg/mL | 0.5 µg/mL | 16 µg/mL | 2 µg/mL (≈ 4.37 µM) | 64 µg/mL | 0.25 µg/mL (≈ 0.546 µM) | 0.25 µg/mL (≈ 0.546 µM) |  |  | 
16 | Cc1ccccc1Cn1cc(CN(C)CC(O)(Cn2cncn2)c2ccc(F)cc2F)nn1 (stereo not drawn) | > 64 µg/mL | 0.0625 µg/mL | 0.25 µg/mL | 4 µg/mL | 0.25 µg/mL (≈ 0.551 µM) | 0.25 µg/mL | 0.25 µg/mL (≈ 0.551 µM) | 0.25 µg/mL (≈ 0.551 µM) |  |  | 
17 | CN(Cc1cn(Cc2cccc(C#N)c2)nn1)CC(O)(Cn1cncn1)c1ccc(F)cc1F (stereo not drawn) | > 64 µg/mL | 0.25 µg/mL | 1 µg/mL | 1 µg/mL | 4 µg/mL (≈ 8.61 µM) | 1 µg/mL | 0.5 µg/mL (≈ 1.08 µM) | 1 µg/mL (≈ 2.15 µM) |  |  | 
18 | CN(Cc1cn(Cc2ccc(F)cc2)nn1)CC(O)(Cn1cncn1)c1ccc(F)cc1F (stereo not drawn) | > 64 µg/mL | 0.25 µg/mL | 0.25 µg/mL | 4 µg/mL | 1 µg/mL (≈ 2.19 µM) | 16 µg/mL | 0.5 µg/mL (≈ 1.09 µM) | 1 µg/mL (≈ 2.19 µM) |  |  | 
19 | CN(Cc1cn(Cc2ccccc2[N+](=O)[O-])nn1)CC(O)(Cn1cncn1)c1ccc(F)cc1F (stereo not drawn) | > 64 µg/mL | 0.25 µg/mL | 1 µg/mL | 4 µg/mL | 1 µg/mL (≈ 2.06 µM) | 0.25 µg/mL | < 0.125 µg/mL | 0.25 µg/mL (≈ 0.516 µM) |  |  | 
20 | C[C@@H](c1ncncc1F)[C@](O)(Cn1cncn1)c1ccc(F)cc1F [VORICONAZOLE] | < 0.125 µg/mL | 0.25 µg/mL | < 0.125 µg/mL | < 0.125 µg/mL | < 0.125 µg/mL | 0.0039 µg/mL | < 0.125 µg/mL | 32 µg/mL (≈ 91.6 µM) |  |  | 
21 | CN(Cc1cn(Cc2ccc(Br)cc2)nn1)CC(O)(Cn1cncn1)c1ccc(F)cc1F (stereo not drawn) | > 64 µg/mL | 0.25 µg/mL | 0.25 µg/mL | 4 µg/mL | 1 µg/mL (≈ 1.93 µM) | 1 µg/mL | < 0.125 µg/mL | 0.25 µg/mL (≈ 0.482 µM) |  |  | 
